# According to ChEMBL document CHEMBL1201862, “PubChem BioAssay data set” (2004):
#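 The compound was tested at five concentrations on cells cultured in 96-well plates, with a 48-hour exposure period. GI50: concentration for 50% inhibition of growth.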 The source made the active and inactive calls. No stated cut-off is given here; in the data, active = GI50 up to about 1.1 µM and inactive = higher.
# Tests used:
# Assay in all cases: NCI tumour cell line growth inhibition, 48 h
# [1] = test system: LOX IMVI
# [2] = test system: OVCAR-4
# [3] = test system: DU-145
# [4] = test system: CAKI-1
# [5] = test system: RXF 393
# [6] = test system: 786-0
# [7] = test system: OVCAR-5
# [8] = test system: MDA-N
# [9] = test system: OVCAR-3
# [10] = test system: SK-OV-3
# [11] = test system: COLO 205
# [12] = test system: K562
# [13] = test system: SF-295
# [14] = test system: OVCAR-8
# [15] = test system: NCI-H23
# [16] = test system: MOLT-4
# [17] = test system: HOP-62
# [18] = test system: BT-549
# [19] = test system: HL-60
# [20] = test system: SNB-19
# [21] = test system: Hs-578T
# [22] = test system: A498
# [23] = test system: UO-31
# [24] = test system: A549
# [25] = test system: RPMI-8226
# [26] = test system: SF-539
# [27] = test system: NCI-H522
# [28] = test system: UACC-62
# [29] = test system: SW-620
# [30] = test system: ACHN
# [31] = test system: MCF7
# [32] = test system: HCT-15
# [33] = test system: Malme-3M
# [34] = test system: SK-MEL-5
# [35] = test system: SF-268
# [36] = test system: EKVX
# [37] = test system: SN12C
# [38] = test system: SR
# [39] = test system: CCRF-CEM
# [40] = test system: NCI-H226
# [41] = test system: HCC 2998
# [42] = test system: T47D
# [43] = test system: HOP-92
# [44] = test system: TK-10
# [45] = test system: SK-MEL-28
# [46] = test system: SK-MEL-2
# [47] = test system: IGROV-1
# [48] = test system: KM12
# [49] = test system: PC-3
# [50] = test system: U-251
# [51] = test system: UACC-257
# [52] = test system: SNB-75
# [53] = test system: NCI/ADR-RES
# [54] = test system: M14
# [55] = test system: MDA-MB-435
# [56] = test system: MDA-MB-231
# [57] = test system: HT-29
# [58] = test system: HCT-116
smiles,measurement,setting,value
N#CC(NCc1cccc(CNC(C#N)c2ccccc2)c1)c1ccccc1 (stereo not drawn),GI50,[1],15 µM (inactive)
same,GI50,[2],56 µM (inactive)
same,GI50,[3],> 100 µM (inactive)
same,GI50,[4],> 100 µM (inactive)
same,GI50,[5],60.4 µM (inactive)
same,GI50,[6],35.6 µM (inactive)
same,GI50,[7],> 100 µM (inactive)
same,GI50,[8],37.2 µM (inactive)
same,GI50,[9],> 100 µM (inactive)
same,GI50,[10],> 100 µM (inactive)
same,GI50,[11],19.5 µM (inactive)
same,GI50,[12],17.1 µM (inactive)
same,GI50,[13],18.7 µM (inactive)
same,GI50,[14],67 µM (inactive)
same,GI50,[15],> 100 µM (inactive)
same,GI50,[16],16 µM (inactive)
same,GI50,[17],> 100 µM (inactive)
same,GI50,[18],24.7 µM (inactive)
same,GI50,[19],20.7 µM (inactive)
same,GI50,[20],64.4 µM (inactive)
same,GI50,[21],32.8 µM (inactive)
same,GI50,[22],> 100 µM (inactive)
same,GI50,[23],94.4 µM (inactive)
same,GI50,[24],28.7 µM (inactive)
same,GI50,[25],21.1 µM (inactive)
same,GI50,[26],26.1 nM (active)
same,GI50,[27],40.3 µM (inactive)
same,GI50,[28],65.2 µM (inactive)
same,GI50,[29],24.5 µM (inactive)
same,GI50,[30],> 100 µM (inactive)
same,GI50,[31],19.3 µM (inactive)
same,GI50,[32],25.8 µM
same,GI50,[33],26.9 µM (inactive)
same,GI50,[34],42.3 µM (inactive)
same,GI50,[35],52.1 µM (inactive)
same,GI50,[36],60 µM (inactive)
same,GI50,[37],77.8 µM (inactive)
same,GI50,[38],25.8 µM (inactive)
same,GI50,[39],18.1 µM (inactive)
same,GI50,[40],> 100 µM (inactive)
same,GI50,[41],14.9 µM (inactive)
same,GI50,[42],48.6 µM (inactive)
same,GI50,[43],34.3 µM (inactive)
same,GI50,[44],46.2 µM (inactive)
same,GI50,[45],18.1 µM (inactive)
same,GI50,[46],> 100 µM (inactive)
same,GI50,[47],18.1 µM (inactive)
same,GI50,[48],22.3 µM (inactive)
same,GI50,[49],42.9 µM (inactive)
same,GI50,[50],31.1 µM (inactive)
same,GI50,[51],59.6 µM (inactive)
same,GI50,[52],28.9 µM (inactive)
same,GI50,[53],> 100 µM (inactive)
same,GI50,[54],26.1 µM (inactive)
same,GI50,[55],99.8 µM (inactive)
same,GI50,[56],26.2 µM (inactive)
same,GI50,[57],16.4 µM (inactive)
same,GI50,[58],23.8 µM (inactive)
